{"source": "patent US20240099944A1", "about": "“Stable Skin Care Compositions Containing a Retinoid” (priority 2022, published 2024)", "test": "Yellow discoloration (b-value) by Color Test Method, accelerated stability 60° C. for two weeks", "type": "physicochemical", "details": "away from direct light, Example 2 with additional ingredient compared to Example 2", "protocol": "This test was performed under accelerated stability conditions of 60° C., away from direct light for two weeks and the samples were stored in containers that limited the free flow of oxygen. […] The b-value was determined by the Color Test Method, described hereafter.\nIn Example 2, the DMDM hydantoin and iodopropynyl butylcarbamate preservative is replaced with a preservative system comprising hydroxyacetophenone and phenoxyethanol.\nTo measure the color of the compositions of the present invention, approximately 8 mL of the product to be tested is transferred into a petri dish (35×10 mm disposable) using a syringe. The Petri dish is then placed on the black half of a standard opacity chart (Form N2A, Leneta Company of Manwah, NJ or the equivalent thereof, of which the top half is black and the bottom half is white). The color (L, a, and b values) of the product in the petri dish is then measured using an integrated sphere spectrophotometer with settings selected to exclude specular reflection. The value for “a” correlates to a value along the red-green (horizontal) axis, and the value for “b” correlates to a value along the blue-yellow (vertical) axis. […] A more positive or negative value represents a more intense color. […]"}
{"smiles": "O=S([O-])[O-].[Na+].[Na+]", "note": "[sodium sulfite]", "values": [{"measurement": "b-value vs. Example 2 (Control)", "value": "dramatically reduced the composition's b-value"}]}
